Test results taken from patent US20240345054A1, “Method of Screening Antioxidants” (Johnson & Johnson Consumer Inc., priority 2021, published 2024).

What was measured:
[1] = UVA-induced squalene oxidation in vitro model, MDA formed measured by fluorometric TBARS assay; assay type: biochemical; details: 20 J/cm^2 UVA; for Efficacy (percentage difference in MDA generation compared to the untreated, UV-stimulated control sample): 0.12 nM protoporphyrin IX, negative = reduction
Method: The antioxidant test model described above was used to test efficacy of various antioxidants in reducing the oxidation of squalene in conditions reflecting approximately two (2) hours of intense sun exposure. The target Oxidizable Component was squalene, in an amount of 30 μL (9.7% w/w) per sample. The solvents selected were dimethyl sulfoxide, propylene glycol (PG), and 1-butanol, in amounts of 8.3% (v/v), 8.3% (v/v), and 83.5% (v/v) per sample, respectively. The tests further included a biological metabolite, specifically protoporphyrin IX, in an amount of 0.12 nM per sample. The exposure to UVA radiation, using a solar simulator (NewportR), Oriel Instruments U.S.A., model 91293-1000), was 20 J/cm^2, as measured by a calibrated UVA detector probe (Solar Light Company, Inc., model PMA2110-UVS) connected to a calibrated simulator controller (Solar Light Company, Inc., model DCS-2).
To prepare the antioxidant test solutions, the antioxidants were first dissolved (via vortexing and gentle heating if necessary) in a volume of dimethyl sulfoxide (DMSO) that achieved a target concentration for the predetermined use level as outlined in Table 1.
The antioxidant test solutions were then diluted by 50% with propylene glycol (PG). […] The bulk volume was vortexed immediately prior to pipetting 5 replicates of 300 μL samples into the wells of a 24-well plate. The plates were then exposed to the UVA radiation until the target UVA dose was achieved (20 J/cm^2), after which the plate was removed and the amount of MDA formed by lipid peroxidation was analyzed. Care was taken during the experiment to protect the samples from extraneous light oxidation throughout the solution preparation, sample plating, and after the UVA exposure prior to MDA quantitation.
The determination of the amount of MDA formed was performed by fluorometric analysis using a commercial TBARS assay kit (Sigma Aldrich, catalogue #MAK085) that reacts thiobarbituric acid with the MDA present in the sample to form a fluorometric product (λex=532/λem=553 nm), which can be easily quantitated with a monochromator-based microplate reader (Tecan Infinite M1000 Pro) and the accompanying software (Tecan i-control). […] The magnitude of efficacy for each sample, expressed as percentage reduction from the untreated control, was averaged for each antioxidant treatment.
In Table 2 below, “X” means that there was no significant reduction (p<0.05) in the MDA formation as compared to the UV-stimulated control. The % of concentration of the active in the formula tested is identified as “% conc”.

[2] = 1% in oil-in-water emulsion, topical twice daily 2 mg/cm^2 for 7 days on the back, human subjects, 10 J/cm^2 UVA; significant (p<0.05); cited from earlier work
[3] = 0.05% conc of active in formula

COc1cc(/C=C/C(=O)O)ccc1O [Ferulic acid]
Efficacy (percentage difference in MDA generation compared to the untreated, UV-stimulated control sample) ([1]; 0.01% conc of active in formula): −47%
Efficacy (percentage difference in MDA generation compared to the untreated, UV-stimulated control sample) [1, 3]: −41%
Efficacy (percentage difference in MDA generation compared to the untreated, UV-stimulated control sample) ([1]; 0.1% conc of active in formula): −39%

O=C1O[C@H]([C@@H](O)CO)C([O-])=C1OP(=O)([O-])[O-].[Na+].[Na+].[Na+] [sodium ascorbyl phosphate]
Efficacy (percentage difference in MDA generation compared to the untreated, UV-stimulated control sample) ([1]; 1% conc of active in formula): −41%
reduction of UV-induced squalene oxidation as compared to the control sample ([1]; 1%, in vitro model): 41%
reduction of UVA-induced squalene oxidation compared to a placebo formulation [2]: 30%

CC(C)(CO)[C@H](O)C(=O)NCCCO [D-Panthenol (Provitamin B5), D-Panthenol]
Efficacy (percentage difference in MDA generation compared to the untreated, UV-stimulated control sample) ([1]; 0.25% conc of active in formula): −21%
Efficacy (percentage difference in MDA generation compared to the untreated, UV-stimulated control sample) ([1]; 0.5% conc of active in formula): −18%

NC(=O)c1cccnc1 [Niacinamide]
Efficacy (percentage difference in MDA generation compared to the untreated, UV-stimulated control sample) ([1]; 0.5% conc of active in formula): 58%

O=C(O)C(O)c1ccccc1 (centres unmarked) [Mandelic acid]
Efficacy (percentage difference in MDA generation compared to the untreated, UV-stimulated control sample) ([1]; 2% conc of active in formula): 81%
Efficacy (percentage difference in MDA generation compared to the untreated, UV-stimulated control sample) ([1]; 3% conc of active in formula): 69%

Cc1cc(C(C)(C)C)c(O)c(C(C)(C)C)c1 [Butylated hydroxytoluene (BHT), Butylated hydroxytoluene]
Efficacy (percentage difference in MDA generation compared to the untreated, UV-stimulated control sample) ([1]; 0.035% conc of active in formula): −54%

Cc1c(C)c2c(c(C)c1O)CC[C@@](C)(CCC[C@H](C)CCC[C@H](C)CCCC(C)C)O2 [Vitamin E (alpha-tocopherol), alpha-tocopherol]
Efficacy (percentage difference in MDA generation compared to the untreated, UV-stimulated control sample) ([1]; 0.1% conc of active in formula): −61%
Efficacy (percentage difference in MDA generation compared to the untreated, UV-stimulated control sample) ([1]; 0.5% conc of active in formula): −78%
Efficacy (percentage difference in MDA generation compared to the untreated, UV-stimulated control sample) ([1]; 1% conc of active in formula): −81%

CC(=O)Oc1c(C)c(C)c2c(c1C)CCC(C)(CCC[C@H](C)CCC[C@H](C)CCCC(C)C)O2 (some centres unmarked) [Vitamin E acetate]
Efficacy (percentage difference in MDA generation compared to the untreated, UV-stimulated control sample) ([1]; 0.1% conc of active in formula): −36%

O=C(O)/C=C/c1ccc(O)cc1 [p-coumeric acid]
Efficacy (percentage difference in MDA generation compared to the untreated, UV-stimulated control sample) [1, 3]: −48%
Efficacy (percentage difference in MDA generation compared to the untreated, UV-stimulated control sample) ([1]; 0.1% conc of active in formula): −55%

O=C(O)CO [Glycolic acid]
Efficacy (percentage difference in MDA generation compared to the untreated, UV-stimulated control sample) ([1]; 3% conc of active in formula): −25%

O=c1cc(-c2ccc(O)cc2)oc2cc(O)cc(O)c12 [Apigenin]
Efficacy (percentage difference in MDA generation compared to the untreated, UV-stimulated control sample) ([1]; 0.5% conc of active in formula): −35%
